The values that follow come from the supplement of paper PMC10307832.

What all share (experiment): relative viability (nuclei count vs DMSO), 5 days (fraction); higher = more cells survive
Compound in assay [1]: CC1=C(C=C(C=C1)NC(=O)C2=CC(=CC=C2)C(C)(C)C#N)NC3=CC4=C(C=C3)N=CN(C4=O)C [AZ628] + C[C@@H](Oc1cc(-c2cnn(C3CCNCC3)c2)cnc1N)c1c(Cl)ccc(F)c1Cl [Crizotinib] (partner 1 µM)
In short, it runs like this: (§1)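 After 5 days of treatment, lung cancer cells in 1536-well plates were fixed and stained in a single step (final 0.05% Triton X-100, 1% formaldehyde, 1 ug/ml Hoechst) and their nuclei counted on 4× images. Treatment had been applied by pin tool the day after seeding as one drug alone or as a fixed anchor-drug dose with five library-drug doses (not always all listed) in √10 steps. Relative viability is the nuclei count of treated wells divided by that of vehicle wells, and values are medians of duplicate plates.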

Compound in assay [2]: C[As](C)SC[C@H](NC(=O)CC[C@H](N)C(=O)O)C(=O)NCC(=O)O [Darinaparsin] + CS(=O)(=O)CCNCc1ccc(-c2ccc3ncnc(Nc4ccc(OCc5cccc(F)c5)c(Cl)c4)c3c2)o1 [Lapatinib] (partner 2 µM)
In short, it runs like this: as §1

Compound in assay [3]: CC1=C(C=C(C=C1)NC(=O)C2=CC(=CC=C2)C(C)(C)C#N)NC3=CC4=C(C=C3)N=CN(C4=O)C [AZ628] + CCNC(=O)c1noc(-c2cc(C(C)C)c(O)cc2O)c1-c1ccc(CN2CCOCC2)cc1 [Luminespib] (partner 0.01 µM)
The essentials: as §1

Compound in assay [4]: C1CC2=C(C1)C=C(C=C2)OC3=NC(=C4C(=N3)N(C=N4)CC5=CC=C(C=C5)C6=CC=CC=C6)N[C@@H](CC7=CC=CC=C7)CO [QS11] + N=C(N)NC(=N)NCCc1ccccc1 [Phenformin] (partner 250 µM)
The essentials:
as §1

Consider UMC-11, for which the relative viability in assay [1] (first compound 0.08 µM) was determined as 0.578; in assay [1] (first compound 0.253 µM), 0.572; in assay [1] (first compound 0.8 µM) it was 0.684; in assay [1] (first compound 2.53 µM) it was 0.542; in assay [1] (first compound 8 µM), 0.781; in assay [2] (first compound 0.08 µM), 1.22. In addition, the relative viability came to 0.977 in assay [2] (first compound 0.8 µM); 0.928 in assay [2] (first compound 2.53 µM); 1.05 in assay [2] (first compound 8 µM); 1.16 in assay [3] (first compound 0.08 µM); 0.999 in assay [3] (first compound 0.253 µM); 0.973 in assay [3] (first compound 0.8 µM). The relative viability came to 0.98 in assay [3] (first compound 2.53 µM); 1.17 in assay [3] (first compound 8 µM); 0.325 in assay [4] (first compound 0.08 µM); 0.287 in assay [4] (first compound 0.253 µM); 0.302 in assay [4] (first compound 0.8 µM); 0.324 in assay [4] (first compound 2.53 µM). Also, the relative viability in assay [4] (first compound 8 µM) came to 0.24.

Turning to NCI-H23, the relative viability in assay [1] (first compound 0.08 µM) was 0.498; in assay [1] (first compound 0.253 µM) it was 0.49; in assay [1] (first compound 0.8 µM), 0.347; in assay [1] (first compound 2.53 µM) it was 0.493; in assay [1] (first compound 8 µM), 0.456; in assay [2] (first compound 0.08 µM), 1.54. Further, the relative viability in assay [2] (first compound 0.8 µM) came to 0.999; in assay [2] (first compound 2.53 µM), 1.22; in assay [2] (first compound 8 µM) it was 1.38; in assay [3] (first compound 0.08 µM), 0.201; in assay [3] (first compound 0.253 µM), 0.222; in assay [3] (first compound 0.8 µM), 0.224. Further, the relative viability is 0.216 in assay [3] (first compound 2.53 µM); 0.201 in assay [3] (first compound 8 µM); 0.769 in assay [4] (first compound 0.08 µM); 0.779 in assay [4] (first compound 0.253 µM); 0.853 in assay [4] (first compound 0.8 µM); 0.678 in assay [4] (first compound 2.53 µM). Also, the relative viability in assay [4] (first compound 8 µM) stood at 0.877.

Regarding NCI-H1355, the relative viability came out at 1.04 in assay [1] (first compound 0.08 µM); 1.05 in assay [1] (first compound 0.253 µM); 0.971 in assay [1] (first compound 0.8 µM); 0.89 in assay [1] (first compound 2.53 µM); 0.768 in assay [1] (first compound 8 µM); 1.11 in assay [2] (first compound 0.08 µM). Besides, the relative viability came to 0.845 in assay [2] (first compound 0.8 µM); 0.893 in assay [2] (first compound 2.53 µM); 1.17 in assay [2] (first compound 8 µM); 0.756 in assay [3] (first compound 0.08 µM); 0.716 in assay [3] (first compound 0.253 µM); 0.705 in assay [3] (first compound 0.8 µM). The relative viability in assay [3] (first compound 2.53 µM) is 0.667; in assay [3] (first compound 8 µM) it was 0.646; in assay [4] (first compound 0.08 µM), 0.445; in assay [4] (first compound 0.253 µM) it was 0.444; in assay [4] (first compound 0.8 µM), 0.457; in assay [4] (first compound 2.53 µM) it was 0.418. Besides, in assay [4] (first compound 8 µM), the relative viability came to 0.457.

For the cell line NCI-H1734, the relative viability in assay [1] (first compound 0.08 µM) was 0.561; in assay [1] (first compound 0.253 µM), 0.574; in assay [1] (first compound 0.8 µM), 0.568; in assay [1] (first compound 2.53 µM), 0.621; in assay [1] (first compound 8 µM), 0.381; in assay [2] (first compound 0.08 µM), 1.87. The relative viability in assay [2] (first compound 0.8 µM) was determined as 1.01; in assay [2] (first compound 2.53 µM) it was 0.951; in assay [2] (first compound 8 µM), 1.31; in assay [3] (first compound 0.08 µM), 0.224; in assay [3] (first compound 0.253 µM), 0.19; in assay [3] (first compound 0.8 µM), 0.153. The relative viability in assay [3] (first compound 2.53 µM) turned out to be 0.172; in assay [3] (first compound 8 µM), 0.142; in assay [4] (first compound 0.08 µM), 0.391; in assay [4] (first compound 0.253 µM), 0.397; in assay [4] (first compound 0.8 µM) it was 0.389; in assay [4] (first compound 2.53 µM), 0.374. In addition, the relative viability in assay [4] (first compound 8 µM) stood at 0.375.

Regarding EPLC-272H, the relative viability in assay [1] (first compound 0.08 µM) came out at 0.904; in assay [1] (first compound 0.253 µM), 0.957; in assay [1] (first compound 0.8 µM), 0.848; in assay [1] (first compound 2.53 µM), 0.851; in assay [1] (first compound 8 µM) it was 0.813; in assay [2] (first compound 0.08 µM) it was 1.02. In addition, the relative viability in assay [2] (first compound 0.8 µM) was determined as 0.935; in assay [2] (first compound 2.53 µM), 0.923; in assay [2] (first compound 8 µM), 0.93; in assay [3] (first compound 0.08 µM), 0.252; in assay [3] (first compound 0.253 µM), 0.2; in assay [3] (first compound 0.8 µM) it was 0.527. Also, the relative viability was 0.171 in assay [3] (first compound 2.53 µM); 0.235 in assay [3] (first compound 8 µM); 0.327 in assay [4] (first compound 0.253 µM); 0.312 in assay [4] (first compound 0.8 µM); 0.287 in assay [4] (first compound 2.53 µM); 0.304 in assay [4] (first compound 8 µM).

With LXF-289, the relative viability worked out at 0.791 in assay [1] (first compound 0.08 µM); 0.749 in assay [1] (first compound 0.253 µM); 0.768 in assay [1] (first compound 0.8 µM); 0.76 in assay [1] (first compound 2.53 µM); 0.497 in assay [1] (first compound 8 µM); 0.968 in assay [2] (first compound 0.08 µM). Besides, the relative viability in assay [2] (first compound 0.8 µM) is 0.874; in assay [2] (first compound 2.53 µM), 0.765; in assay [2] (first compound 8 µM), 1.08; in assay [3] (first compound 0.08 µM), 0.672; in assay [3] (first compound 0.253 µM), 0.67; in assay [3] (first compound 0.8 µM), 0.681. Moreover, the relative viability turned out to be 0.653 in assay [3] (first compound 2.53 µM); 0.544 in assay [3] (first compound 8 µM); 0.468 in assay [4] (first compound 0.08 µM); 0.509 in assay [4] (first compound 0.253 µM); 0.486 in assay [4] (first compound 0.8 µM); 0.495 in assay [4] (first compound 2.53 µM). Besides, the relative viability in assay [4] (first compound 8 µM) was 0.541.

Turning to NCI-H520, the relative viability amounted to 0.707 in assay [1] (first compound 0.08 µM); 0.788 in assay [1] (first compound 0.253 µM); 0.601 in assay [1] (first compound 0.8 µM); 0.833 in assay [1] (first compound 2.53 µM); 0.576 in assay [1] (first compound 8 µM); 1.11 in assay [2] (first compound 0.08 µM). Also, the relative viability in assay [2] (first compound 0.8 µM) is 0.817; in assay [2] (first compound 2.53 µM) it was 0.802; in assay [2] (first compound 8 µM), 0.794; in assay [3] (first compound 0.08 µM) it was 0.21; in assay [3] (first compound 0.253 µM) it was 0.219; in assay [3] (first compound 0.8 µM), 0.209. The relative viability in assay [3] (first compound 2.53 µM) was 0.219; in assay [3] (first compound 8 µM), 0.203; in assay [4] (first compound 0.08 µM), 0.476; in assay [4] (first compound 0.253 µM), 0.687; in assay [4] (first compound 0.8 µM), 0.607; in assay [4] (first compound 2.53 µM), 0.489. Also, the relative viability in assay [4] (first compound 8 µM) was found to be 0.574.

On to H3255, for which the relative viability is 0.926 in assay [1] (first compound 0.08 µM); 0.921 in assay [1] (first compound 0.253 µM); 0.949 in assay [1] (first compound 0.8 µM); 0.866 in assay [1] (first compound 2.53 µM); 0.704 in assay [1] (first compound 8 µM); 0.253 in assay [2] (first compound 0.08 µM). Further, the relative viability came to 0.28 in assay [2] (first compound 0.8 µM); 0.25 in assay [2] (first compound 2.53 µM); 0.216 in assay [2] (first compound 8 µM); 1.03 in assay [3] (first compound 0.08 µM); 0.891 in assay [3] (first compound 0.253 µM); 0.929 in assay [3] (first compound 0.8 µM). Further, the relative viability in assay [3] (first compound 2.53 µM) was determined as 1; in assay [3] (first compound 8 µM) it was 0.556; in assay [4] (first compound 0.08 µM) it was 0.341; in assay [4] (first compound 0.253 µM) it was 0.351; in assay [4] (first compound 2.53 µM) it was 0.418; in assay [4] (first compound 8 µM), 0.363.
